The results in this text go back to ChEMBL document CHEMBL4017513, “Structure-Activity Relationships of Potent, Targeted Covalent Inhibitors That Abolish Both the Transamidation and GTP Binding Activities of Human Tissue Transglutaminase” (J Med Chem, 2017).

Peptide text beside a SMILES is read from it. * marks the point of attachment. Cbz = O=C(OCc1ccccc1)*; Acryloyl = C=CC(=O)*

The target of test [1] is T1, Protein-glutamine gamma-glutamyltransferase (Homo sapiens) (UniProt P21980).
T1 sequence (whole entry): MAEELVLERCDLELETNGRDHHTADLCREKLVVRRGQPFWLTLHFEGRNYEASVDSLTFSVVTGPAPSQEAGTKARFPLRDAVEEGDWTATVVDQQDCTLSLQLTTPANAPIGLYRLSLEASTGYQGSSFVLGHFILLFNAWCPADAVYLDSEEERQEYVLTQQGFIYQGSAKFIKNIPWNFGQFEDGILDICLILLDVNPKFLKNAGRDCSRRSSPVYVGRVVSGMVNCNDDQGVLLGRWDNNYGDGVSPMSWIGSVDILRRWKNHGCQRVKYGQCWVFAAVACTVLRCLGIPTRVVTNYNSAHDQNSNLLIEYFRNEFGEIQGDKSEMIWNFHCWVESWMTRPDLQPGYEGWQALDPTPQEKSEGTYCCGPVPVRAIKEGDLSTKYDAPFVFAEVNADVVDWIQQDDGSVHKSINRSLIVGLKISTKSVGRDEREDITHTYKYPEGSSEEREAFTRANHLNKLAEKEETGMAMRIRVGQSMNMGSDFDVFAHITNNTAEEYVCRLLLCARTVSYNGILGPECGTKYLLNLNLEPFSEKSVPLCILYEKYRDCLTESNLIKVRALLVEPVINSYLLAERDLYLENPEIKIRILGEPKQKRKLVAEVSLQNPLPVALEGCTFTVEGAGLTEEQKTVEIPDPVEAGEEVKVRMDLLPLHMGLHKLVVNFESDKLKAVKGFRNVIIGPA
The experiment in a line: Ratio of kinact to Ki for human TG2 by colorimetric assay.

Test [2] addresses T1, Protein-glutamine gamma-glutamyltransferase (Homo sapiens). The experiment in a line: (§1) Irreversible inhibition of human TG2 using AL5 as substrate by colorimetric assay.
For test [3], the target named is T2, Protein-glutamine gamma-glutamyltransferase (Homo sapiens, UniProt P21980).
T2 sequence (P21980 whole entry): T1 sequence (whole entry)
The description is as §1.

Test [4] is described as follows: Inhibition of guinea pig liver TG2 using Z-Gln-Gly/DMPDA as substrate preincubated for 3 mins followed by protein addition. Set-up: species or system Cavia porcellus.
The target in test [5] is T1, Protein-glutamine gamma-glutamyltransferase (Homo sapiens). The experiment in a line: (§2) Irreversible inhibition of human TG2 using AL5 as substrate by double reciprocal plot method.
The target in test [6] is T2, Protein-glutamine gamma-glutamyltransferase. Described as §2.
Test [7] concerns the target T1, Protein-glutamine gamma-glutamyltransferase (Homo sapiens). The experiment in a line: Ratio of kinact to Ki for human TG2 by double reciprocal plot method.
Test [8] is described as follows: Inhibition of human ECS cells invasion by using Engelbreth-Holm-Swarm mouse tumor matrigel measured after 18 hrs by DAPI staining-based flourescence microscopy. It is filed as functional, cell-based.
The species named for another test is Cavia porcellus. Put plainly: Ratio of Kinact to Ki for guinea pig liver TG2.

Regarding `C=CC(=O)NCCCC[C@H](NC(=O)OCc1ccccc1)C(=O)N1CCN(C(=O)c2ccc3ccccc3c2)CC1`, the Ratio in test [1] is 90.3 ×10³ /M/min. This compound also yielded a Kinact in test [2] of 1.21 min⁻¹. For the same compound, the Ki in test [3] was 13.4 µM.
Turning to `C=CC(=O)NCCCC[C@H](NC(=O)OCc1ccccc1)C(=O)N1CCN(S(C)(=O)=O)CC1`, the Ratio in [1] is 78.4 ×10³ /M/min. In addition, the Kinact in test [2] amounted to 0.5 min⁻¹. The compound further yielded a Ki in test [3] of 6.4 µM.
In the same order, the values of `C=CC(=O)NCCCC[C@H](NC(=O)OCc1ccccc1)C(=O)N1CCN(C(C)=O)CC1` are 36.9 ×10³ /M/min, 2.06 min⁻¹ and 52.1 µM.
`C=CC(=O)NCCCC[C@H](NC(=O)OCc1ccccc1)C(=O)N1CCN(S(=O)(=O)c2ccc3ccccc3c2)CC1`: the Ratio in [1] was 57.3 ×10³ /M/min. In addition, in test [2], the Kinact was found to be 0.38 min⁻¹. Besides, in test [3], the Ki was 6.7 µM.
In the case of `C=CC(=O)NCCCC[C@H](NC(=O)OCc1ccccc1)C(=O)O`, the values for the Ki in test [4] and in test [3] were 0.52 µM and 60.3 µM, respectively.
For `C=CC(=O)NCCCC[C@H](NC(=O)OCc1ccccc1)C(=O)NCC(=O)OC` (Cbz-Lys(Acryloyl)-Gly-OMe), in test [1], the Ratio was 36.2 ×10³ /M/min. For the same compound, in test [2], the Kinact is 1.45 min⁻¹. For the same compound, in [3], the Ki stood at 40 µM.
Consider `C=CC(=O)NCCCC[C@H](NC(=O)OCc1ccccc1)C(=O)N1CCN(S(=O)(=O)C(C)C)CC1`, for which, in test [1], the Ratio came to 54.7 ×10³ /M/min. In test [2], this compound came in with a Kinact of 0.5 min⁻¹. Further, the Ki in test [3] was found to be 9.1 µM.
In [5], `C=CC(=O)NCCCC[C@H](NC(=O)OCc1ccccc1)C(=O)NCCCNS(=O)(=O)c1cccc2c(N(C)C)cccc12` had a Kinact of 0.85 min⁻¹. This compound also came in with a Ki in test [6] of 30.5 µM. For the same compound, in [7], the Ratio is 27.6 ×10³ /M/min.
As to `C=CC(=O)NCCCC[C@H](NC(=O)OCc1ccccc1)C(=O)N1CCN(C(=O)c2cccnc2)CC1`, in [1], the Ratio was 61.4 ×10³ /M/min. In [2], this compound showed a Kinact of 1.44 min⁻¹. In addition, the Ki in test [3] amounted to 23.4 µM.
The compound `C=CC(=O)NCCCC[C@H](NC(=O)OCc1ccccc1)C(=O)N1CCN(S(=O)(=O)c2cccc3c(N(C)C)cccc23)CC1` came in with an EC50 in [8] of 3.9 µM. The Ki in test [3] came out at 12.9 µM.
Turning to `C=CC(=O)NCCCC[C@H](NC(=O)OCc1ccccc1)C(=O)N1CCN(S(=O)(=O)C2CCCCC2)CC1`, the Ratio in test [1] was determined as 62.9 ×10³ /M/min. The same compound had a Kinact in test [2] of 0.69 min⁻¹. In test [3], this compound gave a Ki of 11 µM.
Take `C=CC(=O)NCCCC[C@H](NC(=O)OCc1ccccc1)C(=O)N1CCN(S(=O)(=O)c2cccc3ccccc23)CC1`: in [1], the Ratio came to 37.2 ×10³ /M/min. In test [2], this compound came in with a Kinact of 0.39 min⁻¹. Also, the Ki in test [3] amounted to 10.4 µM.
As to `C=CC(=O)NCCCC[C@H](NC(=O)OCc1ccccc1)C(=O)N1CCN(S(=O)(=O)CC)CC1`, the Ratio in test [1] was 39.4 ×10³ /M/min. In test [2], this compound yielded a Kinact of 1.42 min⁻¹. For the same compound, the Ki in [3] was 36 µM.
On the same counts, the results for `C=CC(=O)NCCCC[C@H](NC(=O)OCc1ccccc1)C(=O)N1CCN(S(=O)(=O)c2cccs2)CC1` are 36.8 ×10³ /M/min, 1.48 min⁻¹ and 40.1 µM.
Consider `C=CC(=O)NCCCC[C@H](NC(=O)OCc1ccccc1)C(=O)N1CCN(C(=O)Cc2ccccc2)CC1`, for which the Ratio in [1] stood at 113 ×10³ /M/min. For the same compound, the Kinact in test [2] came out at 2.26 min⁻¹. In test [3], this compound displayed a Ki of 20 µM.
In [5], `C=CC(=O)NCCC[C@H](NC(=O)OCc1ccccc1)C(=O)N1CCN(S(=O)(=O)c2cccc3c(N(C)C)cccc23)CC1` had a Kinact of 1.18 min⁻¹. Besides, the Ki in test [6] turned out to be 47.7 µM. In test [7], the Ratio amounted to 24.7 ×10³ /M/min.
Turning to `C=CC(=O)NCCCC[C@H](NC(=O)OCc1ccccc1)C(=O)N1CCN(C(=O)c2ccccc2)CC1`, in test [1], the Ratio is 130 ×10³ /M/min. This compound showed a Kinact in test [2] of 4.77 min⁻¹. In test [3], this compound displayed a Ki of 36.6 µM.
The compound `C=CC(=O)NCCCC[C@H](NC(=O)OCc1ccccc1)C(=O)N1CCN(C(=O)c2cccc3ccccc23)CC1` came in with a Ki in test [3] of 8.9 µM.
In the case of `C=CC(=O)NCCCC[C@H](NC(=O)OCc1ccccc1)C(=O)NCCNS(=O)(=O)c1cccc2c(N(C)C)cccc12`, the Kinact in [5] is 1.45 min⁻¹. Moreover, the Ki in test [6] was 23.5 µM. In addition, the Ratio in test [7] turned out to be 61.5 ×10³ /M/min.
With `C=CC(=O)NCCCC[C@H](NC(=O)OCc1ccccc1)C(=O)N1CCN(C(=O)c2ccccn2)CC1`, the Ratio in test [1] was determined as 91.3 ×10³ /M/min. This compound also gave a Kinact in test [2] of 2.93 min⁻¹. The compound also displayed a Ki in test [3] of 32.1 µM.
With `C=CC(=O)NCCCC[C@H](NC(=O)OCc1ccccc1)C(=O)N1CCN(C(=O)c2cc3ccc(O)cc3oc2=O)CC1`, the Ratio in [1] came to 62.1 ×10³ /M/min. This compound yielded a Kinact in test [2] of 0.69 min⁻¹. The compound further came in with a Ki in test [3] of 11.2 µM.
In the case of `C=CC(=O)NCCCC[C@H](NC(=O)OCc1ccccc1)C(=O)NCCCCNS(=O)(=O)c1cccc2c(N(C)C)cccc12`, the Kinact in test [5] is 2.19 min⁻¹. For the same compound, the Ki in test [6] is 27.1 µM. Besides, the Ratio in [7] is 80.8 ×10³ /M/min.
Consider `C=CC(=O)NCCCC[C@H](NC(=O)OCc1ccccc1)C(=O)NCC(=O)O` (Cbz-Lys(Acryloyl)-Gly-OH), for which the Ratio in the test listed under Cavia porcellus came out at 3 ×10⁶ /M/min; in [1], 26.1 ×10³ /M/min. The figures for the Ki in test [4] and in test [3] were 0.15 µM and 48.1 µM, respectively. In test [2], this compound registered a Kinact of 1.26 min⁻¹.
With `C=CC(=O)NCCCC[C@H](NC(=O)OCc1ccccc1)C(=O)N1CCN(c2ccccc2Cl)CC1`, the Ratio in [1] came out at 56 ×10³ /M/min. The compound further yielded a Kinact in test [2] of 0.97 min⁻¹. In addition, the Ki in test [3] was determined as 17.4 µM.
In turn, `C=CC(=O)NCCCC[C@H](NC(=O)OCc1ccccc1)C(N)=O` came in with a Kinact in test [5] of 1.08 min⁻¹. In test [6], this compound registered a Ki of 35.1 µM. Besides, the Ratio in test [7] came out at 30.7 ×10³ /M/min.
On to `C=CC(=O)NCCCC[C@H](NC(=O)OCc1ccccc1)C(=O)N1CCOCC1`, for which the Ratio in [1] is 51 ×10³ /M/min. In test [2], this compound showed a Kinact of 1.47 min⁻¹. In test [3], this compound yielded a Ki of 28.9 µM.
As to `C=CC(=O)NCCCC[C@H](NC(=O)OCc1ccccc1)C(=O)N1CCN(S(=O)(=O)Cc2ccccc2)CC1`, in test [1], the Ratio was determined as 34.9 ×10³ /M/min. The compound further gave a Kinact in [2] of 0.47 min⁻¹. This compound also displayed a Ki in [3] of 14.7 µM.
In the same order, the values of `C=CC(=O)NCCCC[C@H](NC(=O)OCc1ccccc1)C(=O)N1CCN(C(=O)c2ccncc2)CC1` are 37 ×10³ /M/min, 1.43 min⁻¹ and 38.7 µM.
Take `C=CC(=O)NCCCC[C@H](NC(=O)OCc1ccccc1)C(=O)N1CCN(S(=O)(=O)c2ccccc2)CC1`: the Ratio in test [1] came to 53.3 ×10³ /M/min. The compound further displayed a Kinact in test [2] of 0.47 min⁻¹. The same compound registered a Ki in test [3] of 8.8 µM.
